The text below walks through data of patent publication US10130611B2, “Use of benzo-heterocycle derivatives for preventing and treating cancer or for inhibiting cancer metastasis” (MEDICINAL BIOCONVERGENCE RESEARCH CENTER, priority 2009, dated 2018).

For the assay, the target named is T1, MRS-AIMP3 (Homo sapiens, UniProt P56192).
T1 construct: expressed in transfected cells; host or cells: yeast
T1 sequence (P56192 1-900): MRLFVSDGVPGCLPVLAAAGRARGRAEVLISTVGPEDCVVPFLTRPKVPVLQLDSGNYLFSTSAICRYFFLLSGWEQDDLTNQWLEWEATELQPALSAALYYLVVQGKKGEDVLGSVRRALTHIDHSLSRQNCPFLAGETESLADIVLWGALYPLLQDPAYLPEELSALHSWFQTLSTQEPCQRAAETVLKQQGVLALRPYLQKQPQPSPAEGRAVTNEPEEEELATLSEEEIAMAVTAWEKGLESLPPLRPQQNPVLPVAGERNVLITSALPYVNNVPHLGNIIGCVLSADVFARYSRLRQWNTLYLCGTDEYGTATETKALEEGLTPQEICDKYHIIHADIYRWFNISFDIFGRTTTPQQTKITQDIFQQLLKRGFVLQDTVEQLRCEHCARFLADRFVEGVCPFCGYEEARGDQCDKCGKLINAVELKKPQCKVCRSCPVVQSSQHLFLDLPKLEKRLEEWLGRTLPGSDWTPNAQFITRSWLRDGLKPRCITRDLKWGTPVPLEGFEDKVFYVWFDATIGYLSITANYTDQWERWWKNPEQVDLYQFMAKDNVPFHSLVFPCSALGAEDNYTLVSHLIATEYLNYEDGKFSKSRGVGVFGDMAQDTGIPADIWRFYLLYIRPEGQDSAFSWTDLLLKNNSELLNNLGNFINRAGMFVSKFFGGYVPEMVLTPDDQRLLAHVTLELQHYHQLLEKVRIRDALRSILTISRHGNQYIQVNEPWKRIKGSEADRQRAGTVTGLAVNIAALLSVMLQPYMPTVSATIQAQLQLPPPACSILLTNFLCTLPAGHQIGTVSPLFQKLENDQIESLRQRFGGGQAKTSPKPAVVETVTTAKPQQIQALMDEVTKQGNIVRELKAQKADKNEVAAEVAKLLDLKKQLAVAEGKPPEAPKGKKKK
Put plainly: Yeast two hybrid specificity test, LexA-MRS/B42-AIMP3 pair. The assay is classed as cell-based. The settings on record: compound at 50 μg/ml, DMSO control 1.4732. As to the method: On the compound of the present invention obtained by screening a library of compounds, the extent of inhibition on the interaction between KRS and laminin receptor (67LR) was determined by a yeast two hybrid assay, as described below. KRS, LR, AIMP2, AIMP3 and MRS were cloned at LexA vector (clontech) and B42 vector (clontech) each so as to produce required vectors. From among the vectors, LexA-KRS vector and B42-LR vector were co-transformed into yeast EGY/SH cells, and then the yeast cells were diluted to an absorbance (540 nm wavelength) of 0.2 in galactose medium not containing uracil (Ura), histidine (His), tryptophane (Trp) and leucine (Leu), and placed in an amount of 200 u in a 96 well plate. 1 μl of each compound at a concentration of 10 mg/ml was placed in each well, incubated for 6 days, and the absorbance was measured at 540 nm. […] The inhibitory specificity of the selected compound was tested by using two different interaction pairs such as LexA-KRS/B42-AIMP2 and LexA-MRS/B42-AIMP3. […]

Structures are written as SMILES.

On to `CCC(C(=O)O)n1/c(=N/C(=O)c2ccc(C)cc2)sc2ccccc21` (stereo not shown) [Compound of formula 15, 2-[2-(4-Methyl-benzoylimino)-benzothiazol-3-yl]-butyric acid], for which the “MRS-AIMP3 (yeast growth, OD level)” value is reported as 1.2443.
